Values after ≈ are worked out from the molar mass of the structure shown.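 Following 48 hours of exposure in 96-well plates, responses at five concentrations were used to interpolate endpoints linearly. GI50 marks 50% less growth. TGI marks complete inhibition of growth.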 Residues, ends and D or L forms follow the SMILES beside them. *: point of attachment. Boc = CC(C)(C)OC(=O)*
Assays:
Test in all cases: NCI tumour cell line growth inhibition, 48 h
[1] = system: UACC-257 melanoma
[2] = system: SF-295 CNS
[3] = system: TK-10 renal
[4] = system: A549 NSCLC
[5] = system: SK-MEL-28 melanoma
[6] = system: EKVX NSCLC
[7] = system: BT-549 breast
[8] = system: SK-MEL-2 melanoma
[9] = system: SNB-75 CNS
[10] = system: U251 CNS
[11] = system: SW-620 colon
[12] = system: NCI-H23 lung
[13] = system: SF-539 CNS
[14] = system: NCI-H522 lung
[15] = system: HCT-15 colon
[16] = system: MDA-MB-435
[17] = system: M14 melanoma
[18] = system: MOLT-4 leukemia
[19] = system: KM12 colon
[20] = system: MDA-N
[21] = system: SF-268 CNS
[22] = system: K-562 leukemia
[23] = system: COLO 205 colon
[24] = system: UACC-62 melanoma
[25] = system: OVCAR-3 ovarian
[26] = system: HOP-92 NSCLC
[27] = system: SN12C renal
[28] = system: OVCAR-8 ovarian
[29] = system: HCT-116 colon
[30] = system: CCRF-CEM leukemia
[31] = system: DU-145 prostate
[32] = system: SR leukemia
[33] = system: HS 578T breast
[34] = system: NCI-H460 lung
[35] = system: MCF7 breast
[36] = system: HL-60(TB) leukemia
[37] = system: LOX IMVI melanoma
[38] = system: MALME-3M melanoma
[39] = system: SK-OV-3 ovarian
[40] = system: RPMI-8226 leukemia
[41] = system: MDA-MB-231 breast
[42] = system: HCC-2998 colon
[43] = system: IGROV1 ovarian

COC(=O)CNC(=O)C(Cc1ccccc1)NC(=O)C(Cc1ccccc1)NC(=O)OC(C)(C)C (stereo not drawn) (Boc-Phe-Phe-Gly-OMe; configuration not given here)
GI50 [1]: 32.4 µg/mL (≈ 67 µM)
GI50 [2]: 51.1 µg/mL (≈ 106 µM)
GI50 [3]: 37.6 µg/mL (≈ 77.8 µM)
GI50 [4]: 83.3 µg/mL (≈ 172 µM)
GI50 [5]: 18.7 µg/mL (≈ 38.7 µM)
TGI [5]: 38.2 µg/mL (≈ 79.1 µM)
GI50 [6]: 37.1 µg/mL (≈ 76.6 µM)
GI50 [7]: 27.8 µg/mL (≈ 57.5 µM)
TGI [7]: 69.2 µg/mL (≈ 143 µM)
GI50 [8]: 41.2 µg/mL (≈ 85.2 µM)
GI50 [9]: 30.1 µg/mL (≈ 62.2 µM)
GI50 [10]: 32.4 µg/mL (≈ 67 µM)
TGI [10]: 94.7 µg/mL (≈ 196 µM)
GI50 [11]: 49.1 µg/mL (≈ 102 µM)
GI50 [12]: 35.7 µg/mL (≈ 73.8 µM)
GI50 [13]: 21.4 µg/mL (≈ 44.3 µM)
TGI [13]: 41 µg/mL (≈ 84.9 µM)
GI50 [14]: 2.35 µg/mL (≈ 4.86 µM)
TGI [14]: 12.2 µg/mL (≈ 25.3 µM)
GI50 [15]: 69.8 µg/mL (≈ 144 µM)
GI50 [16]: 42.8 µg/mL (≈ 88.5 µM)
GI50 [17]: 27.9 µg/mL (≈ 57.6 µM)
TGI [17]: 65.9 µg/mL (≈ 136 µM)
GI50 [18]: 18.4 µg/mL (≈ 38.1 µM)
TGI [18]: 38.8 µg/mL (≈ 80.3 µM)
GI50 [19]: 28 µg/mL (≈ 57.8 µM)
TGI [19]: 74.5 µg/mL (≈ 154 µM)
GI50 [20]: 32.9 µg/mL (≈ 68.1 µM)
GI50 [21]: 78.4 µg/mL (≈ 162 µM)
GI50 [22]: 20.7 µg/mL (≈ 42.8 µM)
TGI [22]: 41.2 µg/mL (≈ 85.1 µM)
GI50 [23]: 13.5 µg/mL (≈ 27.9 µM)
TGI [23]: 69.5 µg/mL (≈ 144 µM)
GI50 [24]: 15.6 µg/mL (≈ 32.2 µM)
TGI [24]: 28.9 µg/mL (≈ 59.8 µM)
GI50 [25]: 20 µg/mL (≈ 41.4 µM)
TGI [25]: 42.9 µg/mL (≈ 88.7 µM)
GI50 [26]: 24.9 µg/mL (≈ 51.5 µM)
TGI [26]: 43.7 µg/mL (≈ 90.3 µM)
GI50 [27]: 31.3 µg/mL (≈ 64.6 µM)
GI50 [28]: 25.7 µg/mL (≈ 53.1 µM)
TGI [28]: 74.2 µg/mL (≈ 153 µM)
GI50 [29]: 22.5 µg/mL (≈ 46.5 µM)
TGI [29]: 53.3 µg/mL (≈ 110 µM)
GI50 [30]: 21.1 µg/mL (≈ 43.6 µM)
TGI [30]: 48.9 µg/mL (≈ 101 µM)
GI50 [31]: 27.7 µg/mL (≈ 57.3 µM)
GI50 [32]: 21.7 µg/mL (≈ 44.8 µM)
TGI [32]: 46.4 µg/mL (≈ 95.9 µM)
GI50 [33]: 32.8 µg/mL (≈ 67.8 µM)
GI50 [34]: 33.7 µg/mL (≈ 69.6 µM)
GI50 [35]: 34.8 µg/mL (≈ 72 µM)
GI50 [36]: 26.5 µg/mL (≈ 54.7 µM)
TGI [36]: 54.8 µg/mL (≈ 113 µM)
GI50 [37]: 20.8 µg/mL (≈ 43 µM)
TGI [37]: 50.4 µg/mL (≈ 104 µM)
GI50 [38]: 22.3 µg/mL (≈ 46.1 µM)
TGI [38]: 55 µg/mL (≈ 114 µM)
GI50 [39]: 59.6 µg/mL (≈ 123 µM)
GI50 [40]: 20.9 µg/mL (≈ 43.2 µM)
TGI [40]: 49 µg/mL (≈ 101 µM)
GI50 [41]: 48.5 µg/mL (≈ 100 µM)
GI50 [42]: 18.9 µg/mL (≈ 39 µM)
TGI [42]: 40.2 µg/mL (≈ 83.2 µM)
GI50 [43]: 41.6 µg/mL (≈ 86 µM)

From PubChem BioAssay (NCI)
